Results taken from patent US20240066135A1, “DRUG CONJUGATES AND USES THEREOF” (SUPERTRANS MEDICAL LTD, priority 2020, published 2024).
Values after ≈ are worked out from the molar mass of the structure shown. Where two headings read alike, the source gives them in different places.

Assays:
[1] = Red blood cell lysis; type: cell-based; settings: human, human erythrocytes; FBS-deficient media
[2] = PK profiles in mice, IV vs SC administration; type: in vivo; settings: IV 10 mg/kg, SC 20 mg/kg
From the text: FIG. 11 illustrates the feasibility of adaptation of V-r as a low-dose therapy to treat E. coli-associated cUTIs via sub-cutaneous administration.
Adaptation of V-r as a low-dose therapy to treat E. coli-associated cUTIs via sub-cutaneous administration was further investigated. Vancomycin can only be given by IV infusion therapy to treat systemic infections. Due to the very low dose therapy of V-r, additional modes of administration of the drug can be pursued besides IV administration pending retention of high bioavailability. In mice, the exposure of V-r (measured by the AUC) following sub-cutaneous administration was essentially 100% of that afforded by IV administration (see FIG. 11). […] Such a finding is critically important for hospitalized cUTIs (and other infections) whereby the SC route might offer a “go-home sooner” of patients and thus early discharge from the hospital for continued low dose V-r therapy from outpatient departments or within the clinical community settings. Such an approach facilitates the practice of prudent antimicrobial stewardship.

[3] = hRPTEC biomarkers cytotoxicity screen; type: cell-based; settings: human, human renal proximal tubular epithelial cells (hRPTEC); cell count, nuclear size, DNA structure, mitochondrial mass and membrane potential, phospholipidosis, glutathione content
[4] = test system: A. baumannii; test: MIC testing, A. baumannii; type: cell-based; settings: Acinetobacter baumannii
Procedure: (§1) Susceptibility testing was performed based on Clinical and Laboratory Standards Institute (CLSI) guidelines M07-A11 and M100-S29. All bacterial strains were recovered from long-term storage (−80° C.) and cultured on nutrient agar (NA) at 37° C. under aerobic conditions for approximately 20 h, except E. coli ATCC BAA-2469 that was recovered from long-term storage on nutrient agar before further passaging onto nutrient agar+25 μg/mL imipenem (according to ATCC guidelines). Minimum inhibitory concentration (MIC) assays were performed in BD non cation adjusted Mueller-Hinton broth (MHB) in 96-well flat-bottomed polystyrene plates (Corning #3370). Test articles and comparator antibiotics were prepared in sterile water to a concentration of 5.12 mg/mL. For each antibiotic stock, 2× top concentrations of test compounds and comparators were prepared in the appropriate growth medium and added to well 1 of a 96-well plate. Serial 1:1 dilutions were performed from columns 1-11 (changing tips at each dilution step); column 12 served as a positive (growth) control. A negative (sterility) control was set up in available spare wells. A suspension of each strain was prepared in sterile phosphate-buffered saline (PBS) to a density equivalent to a 0.5 McFarland standard. […]
(§2) MICs were determined using standard methodologies as previously described. […]

[5] = test system: E. coli ATCC 25922; test: 9 h thigh muscle infection model in neutropenic mice; type: in vivo, CD-1 mice
Procedure: Using a screening-based strategy, preliminary proof-of-concept studies with V-r employed an abbreviated 9 h thigh muscle infection model in male CD-1 mice rendered neutropenic. To that end, E. coli ATCC 25922 was inoculated at 9.7×10^4 CFUs into both thigh muscles per mouse (n=5 per experimental group). V-r was administered q2h SC (110-880 mg/kg total dose) starting 1 h post-infection. At 9 h, thigh homogenates were prepared and CFUs were enumerated following culture on CLED agar.

[6] = test system: E. coli UTI89; test: 24 h thigh muscle infection model in neutropenic mice; type: in vivo, CD-1 mice
Procedure: FIG. 4 illustrates the efficacy of V-r in reducing E. coli UTI89 bacterial burden in a 24 h thigh muscle infection model in neutropenic CD-1 mice.
In a 24 h thigh muscle infection model, E. coli UTI89 was inoculated at 7.8×10^4 CFU into one thigh muscle per mouse (n=5-8/group) and treated with V-r (total dose of […]) using a q6h dosing regimen from 1 h post-infection. […] Overall, V-r caused a ˜4 to 7.5 log10 reduction in bacterial burden, as compared to vehicle control, over the entire dose range.

[7] = in vivo; settings: beagle, dog, iv, 25 mg/kg
[8] = HepG2 cell cytotoxicity; type: cell-based; settings: human, HepG2 cells; FBS-deficient media
[9] = Single SC administration tolerability; type: in vivo; settings: highest dose tested (800 mg/kg), male CD-1 mice
[10] = Thermodynamic solubility in saline; type: physicochemical; settings: saline or isotonic, thermodynamic from solid; read-out: TD solubility in saline
[11] = for Cl / Vd: CD-1 mice
[12] = Plasma protein binding, human; type: in vitro ADME; settings: read-out: PPB, % bound, human (converted)
[13] = test system: E. coli UNT057-1 (CTX-M-15); test: Complicated urinary tract infection (cUTI) model
Procedure: Female C3H/Hej mice were placed on a 5% glucose water starting 6 days prior to infection and then for the remainder of the study. The complicated urinary tract infection (cUTI) model was established via trans-urethral injection of the bacterial inoculum. Mice were anesthetized with Ketamine HCL at 40 mg/kg body weight and Xylazine at 6 mg/kg body weight in 0.15 ml PBS injected intra-peritoneally. Using a dissection scope (10×), the urethral orifice was located and a tapered PE10 catheter (attached to MRE40 tubing and a 23 G blunt hub syringe) was inserted and 0.05 ml of the prepared inoculum slowly injected. […] E. coli UNT057-1 (CTX-M-15) strain was used for the cUTI model and inoculum grown in Tryptic soy broth (TSB) to 1.0×10^10 CFU/ml suspension. […] A positive control of meropenem was given at 300 mg/kg q12h by sub-cutaneous administration for a total of 3 days. All treatment groups consisted of 10 animals with CFU (kidneys, bladder and urine) bacterial counts at 7 days post-infection used as the endpoint for efficacy. At 7 days post-infection, urine was collected from mice into 1.5 ml sterile tubes and then mice were euthanized. Kidneys and bladders were homogenized, and the homogenates and urine were serially diluted in 1×PBS and plated onto Brain heart infusion and 0.5% charcoal agar. Agar plates were incubated at 37° C., and colony counts were recorded the following day.

[14] = test system: E. coli; test: MIC testing, E. coli; type: cell-based
Procedure: Susceptibility testing was performed based on Clinical and Laboratory Standards Institute (CLSI) guidelines M07-A11 and M100-S29. All bacterial strains were recovered from long-term storage (−80° C.) and cultured on nutrient agar (NA) at 37° C. under aerobic conditions for approximately 20 h, except E. coli ATCC BAA-2469 that was recovered from long-term storage on nutrient agar before further passaging onto nutrient agar+25 μg/mL imipenem (according to ATCC guidelines). Minimum inhibitory concentration (MIC) assays were performed in BD non cation adjusted Mueller-Hinton broth (MHB) in 96-well flat-bottomed polystyrene plates (Corning #3370). Test articles and comparator antibiotics were prepared in sterile water to a concentration of 5.12 mg/mL. For each antibiotic stock, 2× top concentrations of test compounds and comparators were prepared in the appropriate growth medium and added to well 1 of a 96-well plate. Serial 1:1 dilutions were performed from columns 1-11 (changing tips at each dilution step); column 12 served as a positive (growth) control. A negative (sterility) control was set up in available spare wells. A suspension of each strain was prepared in sterile phosphate-buffered saline (PBS) to a density equivalent to a 0.5 McFarland standard. Bacterial suspensions were then diluted 1:150 in the appropriate medium and used to inoculate assay plates (columns 1 through 11) to provide a starting inoculum of ˜2 to 8×10^5 CFU/mL. […] The MIC was defined as the lowest concentration of test articles resulting in complete inhibition of visible growth.
MICs were determined using standard methodologies as previously described. […] Time-kill assays were performed against uropathogenic E. coli strains, including the sequence type 131 (ST131) NCTC-13341 isolate.

[15] = in vivo; settings: male, CD-1, mouse, plasma, sc
[16] = test system: E. coli ATCC 25922; type: cell-based
[17] = for AUC: mice
[18] = test system: GPB; test: MIC testing, GPB; type: cell-based; settings: FIG. 2
Procedure: as §1, §2

[19] = LogD (Octanol/buffer); type: physicochemical
[20] = test system: MRSA infections; settings: 150 mg/kg in rats, 100 mg/kg in dogs, 15 mg/kg in humans; cited from earlier work
[21] = Plasma protein binding, mouse; type: in vitro ADME; settings: read-out: PPB, % bound, mouse
[22] = total dose over 9 h 110 mg/kg, q2h SC
[23] = total dose over 24 h 200 mg/kg, q6h
[24] = total dose over 24 h 1050 mg/kg
[25] = total dose over 24 h 1400 mg/kg
[26] = total dose over 24 h 1272 mg/kg

## CN[C@H](CC(C)C)C(=O)N[C@H]1C(=O)N[C@@H](CC(N)=O)C(=O)N[C@H]2C(=O)N[C@H]3C(=O)N[C@H](C(=O)N[C@H](C(=O)N[C@H](CCCNC(=N)N)C(N)=O)c4cc(O)cc(O)c4-c4cc3ccc4O)[C@H](O)c3ccc(c(Cl)c3)Oc3cc2cc(c3O[C@@H]2O[C@H](CO)[C@@H](O)[C@H](O)[C@H]2O[C@H]2C[C@](C)(N)[C@H](O)[C@H](C)O2)Oc2ccc(cc2Cl)[C@H]1O [V-r, vancomycin-D-arginine]
[1]
  CC50: > 750 µM
[2]
  exposure following sub-cutaneous vs IV administration: essentially equivalent
[3]
  CC50: > 100 µM
[4]
  MIC: 8 µg/mL (≈ 4.99 µM)
[5]; 440 mg/kg
  reduction below stasis: 1.0 log10
[5]; 880 mg/kg
  reduction below stasis: 1.3 log10
[5]; 9 h model, total dose
  extrapolated static dose: 215 mg/kg
[5]; [22]
  Log10 Group Geometric mean (CFU/g) ± SD: 5.87 ± 0.60 Log10 CFU/g
  Log10 change from vehicle (CFU/g): −1.24 Log10 CFU/g
[5]; total dose over 9 h 440 mg/kg
  Log10 Group Geometric mean (CFU/g) ± SD: 4.14 ± 0.63 Log10 CFU/g
  Log10 change from vehicle (CFU/g): −2.97 Log10 CFU/g
[5]; total dose over 9 h 880 mg/kg
  Log10 Group Geometric mean (CFU/g) ± SD: 3.76 ± 0.40 Log10 CFU/g
  Log10 change from vehicle (CFU/g): −3.35 Log10 CFU/g
[6]; all doses higher than 200 mg/kg
  reduction of burden below stasis: up to 2.7 log10 CFU/g
[6]; static dose
  total 24 h dose reducing E. coli burden to pre-treatment (stasis) levels: 250 mg/kg
[6]; thigh muscle model
  reduction of E. coli burden: > 7 log10 CFU/g
[6]; [23]
  Log10 Group Geometric mean (CFU/g) ± SD: 5.60 ± 2.28 Log10 CFU/g
  Log10 change from vehicle (CFU/g): −4.11 Log10 CFU/g
[6]; total dose over 24 h 400 mg/kg
  Log10 Group Geometric mean (CFU/g) ± SD: 3.27 ± 1.88 Log10 CFU/g
  Log10 change from vehicle (CFU/g): −6.43 Log10 CFU/g
[6]; total dose over 24 h 700 mg/kg
  Log10 Group Geometric mean (CFU/g) ± SD: 2.58 ± 0.25 Log10 CFU/g
  Log10 change from vehicle (CFU/g): −7.13 Log10 CFU/g
[6]; [24]
  Log10 Group Geometric mean (CFU/g) ± SD: 2.08 ± 0.89 Log10 CFU/g
  Log10 change from vehicle (CFU/g): −7.63 Log10 CFU/g
[6]; [25]
  Log10 Group Geometric mean (CFU/g) ± SD: 2.68 ± 1.38 Log10 CFU/g
  Log10 change from vehicle (CFU/g): −7.03 Log10 CFU/g
[7]
  AUC: 580 µg·h/mL
[8]
  CC50: > 750 µM
[9]
  tolerability of a single SC administration: well tolerated
[10]
  solubility: 373 mg/mL (≈ 232000 µM)
[11]; SC 20 mg/kg
  Cl: 7.8 mL/min/kg
  Vd: 0.59 L/kg
[11]; SC 121 mg/kg
  Cl: 5.4 mL/min/kg
  Vd: 0.60 L/kg
[11]; SC administration
  elimination kinetics: first-order elimination
[12]
  fraction unbound: 0.24
[13]; bladder, q12h for 3 days
  q12h dose with maximal abrogation of bacterial burden, bladder: 25 mg/kg
[13]; kidney
  required daily 24 h dose to cause maximal reductions in bacterial burden: 100 mg/kg
[13]; kidney, q12h for 3 days
  q12h dose with maximal abrogation of bacterial burden, kidney: 50 mg/kg
[13]; urine and bladder
  required daily 24 h dose to cause maximal reductions in bacterial burden: 50 mg/kg
[13]; urine, q12h for 3 days
  q12h dose with maximal abrogation of bacterial burden, urine: 25 mg/kg
[14]
  MIC range: 8 to 16 µg/mL
[14]; Escherichia coli
  MIC: 8 µg/mL (≈ 4.99 µM)
  MIC90: 16 µg/mL (≈ 9.97 µM)
[15]; 20 mg/kg
  AUC: 42.7 µg·h/mL
  Cmax: 20.4 µg/mL
  half-life: 0.87 h
[15]; 121 mg/kg
  AUC: 366 µg·h/mL
  Cmax: 98.4 µg/mL
  half-life: 1.29 h
[16]
  FOR (at 8 × MIC): <2.32 × 10^−10
[17]; single IV 25 mg/kg, 25 mg/kg
  AUC: 43.27 µg·h/mL
[17]; single IV 50 mg/kg, 50 mg/kg
  AUC: 103.64 µg·h/mL
[17]; single IV 1-50 mg/kg
  PK profile: linear
[18]
  antimicrobial potency towards a number of GPB: remained intact
[19]
  logD: < -4.01

## CN[C@H](CC(C)C)C(=O)N[C@H]1C(=O)N[C@@H](CC(N)=O)C(=O)N[C@H]2C(=O)N[C@H]3C(=O)N[C@H](C(=O)N[C@H](C(=O)O)c4cc(O)cc(O)c4-c4cc3ccc4O)[C@H](O)c3ccc(c(Cl)c3)Oc3cc2cc(c3O[C@@H]2O[C@H](CO)[C@@H](O)[C@H](O)[C@H]2O[C@H]2C[C@](C)(N)[C@H](O)[C@H](C)O2)Oc2ccc(cc2Cl)[C@H]1O [Vancomycin, vancomycin, reference compound]
[1]
  CC50: > 750 µM
[3]
  CC50: > 100 µM
[4]; read-out: MICs
  MIC: 64 to 256 µg/mL (≈ 44.2 to 177 µM)
[5]; dose equivalent to the highest dose of V-r
  impact on E. coli burden: failed to significantly impact E. coli burden
[5]; total dose over 9 h 800 mg/kg
  Log10 Group Geometric mean (CFU/g) ± SD: 6.60 ± 0.66 Log10 CFU/g
  Log10 change from vehicle (CFU/g): −0.51 Log10 CFU/g
[6]; [26]
  Log10 Group Geometric mean (CFU/g) ± SD: 8.48 ± 1.31 Log10 CFU/g
  Log10 change from vehicle (CFU/g): −1.23 Log10 CFU/g
[20]
  target AUC in the treatment of MRSA infections: approximately 400 mg·h/l
[8]
  CC50: > 750 µM
[10]
  solubility: > 50 mg/mL
[21]
  fraction unbound: 0.5
[12]
  fraction unbound: 0.5
[14]; Escherichia coli, read-out: MICs
  MIC: 64 to 256 µg/mL (≈ 44.2 to 177 µM)
